Assay results: US6576263B2, “Delivery systems using preformed biodegradable polymer compositions and methods” (3M Innovative Properties Company, priority 2000, dated 2003)

Experiments:
Type in all cases: physicochemical
[1] = Release of 5FU from preformed, dried albumin/PEG-(SS)2 plugs reconstituted with 5FU solution; conditions: rehydrated albumin/PEG-(SS)2 plug, PBS pH 7.4, room temperature
Method: Two polymer plugs were preformed in a modified 5-milliliter (ml) poly syringe, wherein the syringe barrel was cut to form an open cylindrical receptacle, and then by mixing 0.5 ml of 29% albumin solution (obtained from American Biological Technology, Seguin, Tex. or by diafiltration (Procedure B) as described above) and 0.5 ml of 136 mg/ml PEG-(SS)2 crosslinker. After crosslinking was complete (15 minutes) the plugs were removed from the syringe and pushed out. The polymer plugs were dried under vacuum for 24 hours (hr). The plugs were reconstituted with […] of a 5FU solution (1.04 mg/ml from Sigma Chemical Co, St. Louis, Mo.) so that each plug contained a total of 187.6 micrograms (μg), or 165.5 μg of 5FU. Each plug was placed into a separate vial, and five ml of phosphate buffered saline (PBS), at pH 7.4, were added at sample time 0 (t0). The vials were maintained at room temperature and were shaken continuously. At each sample time, the entire content of the vial was removed and replaced with 5 ml of fresh PBS. Samples were taken at 0.25 hr, 0.5 hr, 1 hr, 2 hr, 3 hr, 4 hr, 5 hr, 6 hr, and 24 hr. Ana of 5FU was analyzed by high-pressure liquid chromatography, following the method of Bernatchez et al., Int. J. Pharm., 106, 161-166 (1994).

[2] = Release of 5FU from albumin plugs containing alginic acid with added calcium; conditions: over a 5-hr period; alginate/Ca/5FU in albumin plug, PBS pH 7.4
Method: (§1) One ml of 1.04 mg/ml 5-fluorouracil was mixed with 30 mg of alginic acid. The pH of the mixture was brought to 6.8, and 150 μl of a saturated calcium chloride/water solution was added to gel the alginate. The gel was divided into 3 approximately equal volumes and then placed into a vacuum desiccator with DRIERITE to dry for 24 hr. The resulting alginate/Ca/5FU films were ground up and mixed into the 30% albumin solution (see Example 2) just prior to being placed into the 5-ml forms and crosslinked with an equivalent volume of PEG-(SS)2 crosslinker (136 mg/ml). Each plug was placed into a separate vial, and five mls of phosphate buffered saline (PBS), at pH 7.4, was added at sample time 0 (t0). The vials were maintained at room temperature and were shaken continuously. At each sample time, the entire content of the vial was removed and replaced with 5 ml of fresh PBS. Samples were taken at 1 hr, 2 hr, 3 hr, 4 hr, 5 hr, and 24 hr.
The 5FU was analyzed as described in Example 1.

[3] = Release of 5-fluorouracil from plug made with 5FU mixed with the crosslinker and albumin; conditions: over an 8-hr period; 5FU added with crosslinker, PBS pH 7.4, room temperature
Method: 136 mg of PEG-(SS)2 crosslinker was dissolved in 1 ml of a 1.04 mg/ml 5-Fluorouracil solution. This solution was then mixed into 1 ml of 30% albumin solution (see Example 2) already in a 5-ml form. The resulting hydrogel plug was removed from the form after 15 minutes and cut into three equal sized pieces (approximately 0.5 cm in thickness). Each piece was then placed into a vial and 4 ml of a PBS buffer (pH 7.4) added at sample time 0 (t0). The vials were maintained at room temperature and were shaken continuously. At each sample time, the entire content of the vial was removed and replaced with 4 ml of fresh PBS. Samples were taken at 1 hr, 2 hr, 4 hr, and 8 hr.

[4] = Release of 5FU from albumin plugs containing alginic acid without added calcium; conditions: over a 5-hr period; alginate/5FU without calcium in albumin plug, PBS pH 7.4
Method: as §1, with “One milliliter” for “One ml”, “and” for “and 150 μl of a saturated calcium chloride/water solution was added to gel the alginate. The gel was divided into 3 approximately equal volumes and”, “resulting alginate/5FU film was” for “resulting alginate/Ca/5FU films were”, “the 5 ml syringe” for “the 5-ml”, “and 5 ml” for “and five mls”
The 5FU was analyzed as in Example 1.

[5] = Release of cefazolin from albumin plugs made with 4-arm PEG crosslinker; conditions: albumin/4-arm PEG plug, PBS pH 7.4, room temperature
Method: Two polymer plugs were preformed from 0.5 ml of 30% albumin solution (Procedure B) and 0.5 ml of 110 mg/ml 4-arm-N-hydroxysuccinimidyl ester of poly(ethylene glycol)-succinate crosslinker (Shearwater Polymers, Inc., Huntsville, Ala.). Approximately 10 mg of sodium cefazolin (Sigma Chemical. Co., St. Louis, Mo.) was dissolved in the albumin before the crosslinker was added to form the cylindrical plugs. Each formed plug was placed into a separate vial, and 8 mls of phosphate buffered saline (PBS) at pH 7.4 was added at sample time (t0). The vials were maintained at room temperature and were shaken continuously. At each sample time, the entire content of the vial was removed and replaced with eight ml of fresh PBS. Samples were taken at 0.25, 0.5, 1, 2, 3, 4, 5, and 24 hours and approximately every 24 hours thereafter up to 144 hours.
Cefazolin was analyzed by high-pressure liquid chromatography, following the method of Liang et al, J. Chromatog. B., 656, 45-465 (1994). The column was a Waters C-18 (3.9×300 mm) column sold under the tradename MICROBONDAPAK and the column temperature was maintained at 25° C. The mobile phase consisted of 0.02M sodium phosphate buffer (pH=5.0 and methanol (77:23). The wavelength used for detection was 270 nm and the column flow rate was 1.0 ml/min.

| time period over which 5FU was released [1] [h] | 5FU released [2] | 5-fluorouracil released [3] | 5FU released [4] | total cefazolin released ([5]; over 144 hours) [%] | cefazolin released ([5]; over the first 5-hour time period) | SMILES |
| --- | --- | --- | --- | --- | --- | --- |
| 5 | about 60% | about 55% | about 40% |  |  | O=c1[nH]cc(F)c(=O)[nH]1 [Example 5FU, 5-fluorouracil] |
|  |  |  |  | 95.6 | approximately 67% | Cc1nnc(SCC2=C(C(=O)O)N3C(=O)[C@@H](NC(=O)Cn4cnnn4)[C@H]3SC2)s1 [cefazolin] |
